One data set deals with S. aureus RN4220. Kind of data set: growth inhibition assay in liquid culture, potentiation of gentamicin (Gm). Format: cell-based. Particulars: compound at 0.375 μg/mL. The source says: The compounds of the invention were screened in a growth inhibition assay in liquid culture of nonpathogenic S. aureus RN4220 to directly test whether a hit compound can potentiate the action of gentamicin (Gm) added at ≤10% the minimal inhibitory concentration (MIC). Gentamicin is a ribosome-targeting bactericidal antibiotic induces oxidative stress and is effective against MRSA strains. Although gentamicin is not a first-line antibiotic for monotherapy of staphylococcal infection, it is used in combination with vancomycin or β-lactams to treat serious infections, such as endocarditis.
The MIC results for the remaining compounds of the disclosure are provided in Table 2. % MIC activity of 51-100 is labeled “+”, % MIC activity of 21-50 is labeled “++”, and % MIC activity of ≤20 is labeled “+++”.

For data set [1], the target named is T1, S. aureus CSE (Staphylococcus aureus, UniProt A0A0H3K724). Kind of data set: H2S produced by purified CSE in vitro. Format: biochemical. Particulars: read-out: IC50, reduction of enzymatic activity (H2S produced by purified CSE). As to the method:
(§1) The amount of H2S produced by purified CSE was measured in the presence of the compound of Ex. 80 and found strong reduction of enzymatic activity with IC50 about 100 nM (FIG. 2B). This IC50 values are 10- to 400-fold lower than those determined for conventional CSE inhibitors and correlates well with its binding affinity, KD, as determined by MicroScale Thermophoresis (MST) (FIG. 2C).

For another data set, the system named is HeLa cells. Kind of data set: cytotoxicity in HeLa cells using a different assay. Format: cell-based.
A further data set concerns human BJ cell line. As to the kind of experiment: IncuCyte Cytotoxicity Assay. Format: cell-based. On the procedure: To determine toxicity of the compounds of the disclosure, an IncuCyte™ Cytotoxicity Assay (Essen BioScience) in the human BJ cell line was conducted. Cell cultures were supplemented with a chemical probe which entered the cell and labeled nuclei green fluorescence as cells die and membrane integrity is lost. Nuclei of live cells were labeled with red fluorescence. […] This cytotoxic concentration was over 50-fold higher than the optimal concentration of the compound of Ex. 80 for bacterial growth inhibition in liquid culture in combination with 10% MIC of gentamicin. Therefore, the compounds of the disclosure show low cytotoxicity in human cell lines and present desirable targets for the development of compositions for treating bacterial infections.

Data set [2] has as its system vancomycin-resistant RN10659 strain. Kind of data set: growth inhibition test in combination with vancomycin. As to conditions: for bacterial growth, agent alone: single agent. Format: cell-based, S. aureus. On the procedure: (§2) FIG. 3 illustrates inhibition of culture growth of drug-resistant S. aureus by (A) the compound of Ex. 80 (GO-0001197; labeled as #9077) (30 μM) and 50% MIC of methicillin (Met) in methicillin-resistant USA300 strain; or by (B) the compound of Ex. 80 (30 μM) and 50% MIC of vancomycin (Van) in vancomycin-resistant RN10659 strain.
(§3) Because H2S inhibitors dramatically reduce the effective dose of antibiotics, they may potentiate or augment the activity of antibiotics in the strains that acquired resistance to these antibiotics. The compound of Ex. 80 (GO-0001197) was evaluated with two clinically relevant antibiotics, methicillin and vancomycin, which have different mechanisms of resistance.

Data set [3] concerns methicillin-resistant USA300 strain. Kind of data set: growth inhibition test in combination with methicillin. Format: cell-based, S. aureus. As to conditions: for bacterial growth, agent alone: single agent. On the procedure:
as §2, §3

The target of data set [4] is T1, S. aureus CSE. Kind of data set: binding to CSE by MicroScale Thermophoresis (MST). As to the method: as §1
In general terms: In MST a laser heats a spot of the sample, and binding alters the fluorescence response.

This is an account of results in patent US20210214359A1, “Compounds and Methods for Treating Bacterial Infections” (NEW YORK UNIVERSITY, priority 2018, published 2021).

T1 sequence (A0A0H3K724 entry or part of it): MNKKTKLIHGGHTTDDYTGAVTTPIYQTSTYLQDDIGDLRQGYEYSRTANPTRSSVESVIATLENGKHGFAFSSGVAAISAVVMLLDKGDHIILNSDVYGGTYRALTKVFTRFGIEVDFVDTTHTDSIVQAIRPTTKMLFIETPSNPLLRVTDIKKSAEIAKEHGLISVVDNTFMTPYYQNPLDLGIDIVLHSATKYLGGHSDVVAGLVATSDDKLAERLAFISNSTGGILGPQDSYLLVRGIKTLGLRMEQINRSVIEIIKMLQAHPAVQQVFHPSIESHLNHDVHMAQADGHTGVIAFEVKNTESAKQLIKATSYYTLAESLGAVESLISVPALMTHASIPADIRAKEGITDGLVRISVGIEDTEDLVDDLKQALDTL

As for `O=C(O)c1cc(Cn2ccc3ccc(-c4cc5cccc(Cl)c5s4)cc32)[nH]n1` [Example 68, 5-{[6-(7-chloro-1-benzothiophen-2-yl)-1H-indol-1-yl]methyl}-1H-pyrazole-3-carboxylic acid], in the data set on S. aureus RN4220, the “% MIC at 0.375 μg/mL” value is recorded as 10 (% MIC at 0.375 μg/mL).
For `O=C(O)CNC(=O)Cn1ccc2ccc(Br)cc21` [Example 80, (2-(6-bromo-1H-indol-1-yl)acetyl)glycine], the IC50 – broadly, the concentration that inhibits the measured activity by half – on S. aureus CSE [1] is roughly 100 nM. In the data set with HeLa cells, this compound gave a cytotoxic concentration of roughly 400 µM. In addition, in the data set on human BJ cell line (human), the “concentration at which more than a half of the cells died” value is 1,250 μM, the “concentration at which practically all cells died” value is 2,500 μM, the “concentration at which the compound becomes toxic to cells (conservative estimation)” value was roughly 500 µM and the “concentration at which the number of dead cells started to increase” value was found to be 625 µM. Besides, the “cytotoxic concentration fold higher than optimal concentration for bacterial growth inhibition” value in the data set on human BJ cell line (versus liquid culture with 10% MIC of gentamicin) was “over 50 fold”. Also, the “bacterial growth in co-treatment with vancomycin” value in data set [2] (Ex. 80 10 μg/mL + vancomycin 2 μg/mL) was “inhibition of bacterial growth”. Also, in data set [2], the “bacterial growth, agent alone” value was “did not affect bacterial growth”. Besides, the “bacterial growth in co-treatment with methicillin” value in data set [3] (Ex. 80 10 μg/mL + methicillin 5 μg/mL) was “inhibition of bacterial growth”. The “bacterial growth, agent alone” value in data set [3] was “did not affect bacterial growth”.
With `C#CCC(N)C(=O)O` (stereo not shown) [PAG, propargylglycine], the Kd (in general, the constant that tells how readily two partners part at equilibrium) at S. aureus CSE [4] is roughly 90 µM. On S. aureus CSE [4] (MST, CSE), the “fold higher KD than Ex. 80” value was 225 fold.
In the case of `COc1cccc(OC)c1C(=O)N[C@@H]1C(=O)N2[C@@H]1SC(C)(C)[C@@H]2C(=O)O` [methicillin, reference compound], in data set [3], the “bacterial growth, agent alone” value is listed as “only slowed down growth”.
Regarding `CN[C@H](CC(C)C)C(=O)N[C@H]1C(=O)N[C@@H](CC(N)=O)C(=O)N[C@H]2C(=O)N[C@H]3C(=O)N[C@H](C(=O)N[C@H](C(=O)O)c4cc(O)cc(O)c4-c4cc3ccc4O)[C@H](O)c3ccc(c(Cl)c3)Oc3cc2cc(c3O[C@@H]2O[C@H](CO)[C@@H](O)[C@H](O)[C@H]2O[C@H]2C[C@](C)(N)[C@H](O)[C@H](C)O2)Oc2ccc(cc2Cl)[C@H]1O` [vancomycin, reference compound], in data set [2], the “bacterial growth, agent alone” value is recorded as “only slowed down growth”.
